The target of test [1] is T1, GPIIb-IIIa (Homo sapiens, UniProt P05106+P08514).
T1 construct: platelet membrane GPIIb-IIIa protein from lysed platelets; from tissue
Description: Competition assay: synthetic polypeptide inhibition of biotinylated Fn binding to purified GPIIb-IIIa. To be noted: for inhibition of Fn binding to GPIIb-IIIa: tested at 200 μM polypeptide. As for the experimental part: The competition assays are performed as described by Charo et al., J. Biol. Chem., 266:1415-1421 (1991). The competition assay is performed by first admixing into individual wells of a 96 well microtiter plate (Immunlon, Dynatech) 10 μg/ml of purified GPIIb-IIIa, prepared in Example 1, diluted in HEPES-saline buffer, pH 7.4, consisting of 10 mM HEPES, 150 mM NaCl 1 mM CaCl2 and 1 mMMgCl2. The plates are maintained for 16 hours at 4° C. to allow the purified receptor to adsorb onto the walls of the wells. The receptor-coated wells are then washed two times with Modified Tyrode's buffer, prepared as described in Example 1, to remove any non-bound receptor from the receptor-coated wells. Non-receptor-occupied sites on the microtiter wells are blocked by admixing 5% BSA dissolved in Modified Tyrode's buffer into each well and maintaining the plate for 2 hours at room temperature.
After removing the blocking solution and washing the blocked wells as described above, 50 μl of a 10 nM solution of biotinylated Fn in Modified Tyrode's buffer is admixed into each well in the presence of polypeptides prepared in Example 9a ranging in concentration from 0.1 μM to 200 μM polypeptide to form a solid-liquid phase receptor-protein admixture. Fn admixed in the absence of polypeptides served as a positive control for the competition assay. Purified Fn is prepared as described in Example 2.
The resultant purified Fn is then biotinylated as described by Dale et al., Blood, 77:1096-1099 (1991). Briefly, for biotinylation, Fn is first dialyzed into 0.1M NaHCO3 containing 0.1M NaCl at pH 8.0 and centrifuged at 100,000× g for 30 minutes at 4° C. to remove any particulate matter. The protein concentration is adjusted to 0.5 mg/ml in 50 mM sodium borate at pH 8.5. […]
The Fn-peptide admixtures are maintained in GPIIb-IIIa-coated wells for 2 hours at room temperature to allow the biotinylated Fn to bind to the receptor. Following this maintenance period, the reacted wells are washed as described above and the amount of biotinylated Fn bound to GPIIb-IIIa is determined by admixing 0.1 ml avidin bound to biotinylated horseradish peroxidase H (Hrp) (Sigma, St. Louis, Mo.) at a 1:2000 dilution to form an avidin-biotinylated Fn admixture. […] Excess avidin Hrp is removed by washing as described and the presence of biotinylated Fn bound to purified GPIIb-IIIa is detected by admixture of 50 μl of freshly prepared chromogenic substrate solution containing 4.0 mg/ml 0-phenylenediamine and 0.012% (v/v) hydrogen peroxide in CP buffer as described in Example 3a. After maintaining the color developing-reaction admixture for 10 minutes at 20° C., the reaction is stopped with the admixture of 2N H2 SO4 and the stopped reactions are measured for absorbance as described in Example 3a.

In test [2] the target is T1, GPIIb-IIIa. As to the kind of experiment: Direct binding of 125I-labelled ligands to microtiter wells coated with purified GPIIb-IIIa. From the text:
To determine if the insert coded polypeptide containing fibronectin residues 1235-1436 bound GPIIb-IIIa, the capacity of microtiter wells coated with purified GPIIb-IIIa to bind the radiolabelled fusion-protein preparation was ascertained (Table 3). In addition, the radiolabelled material bound to the insolubilized GPIIb-IIIa was recovered and analyzed by SDS-PAGE followed by radioautography. […] The isolated protein products were a mixture of insert coded polypeptides containing fusion protein and maltose binding protein breakdown products. Only those bands containing the insert-coded polypeptide bound to the insolubilized GPIIb-IIIa and that binding was inhibitable by either EDTA or the monoclonal antibody FnI-16.

Test [3] addresses T1, GPIIb-IIIa. Description: Inhibition of 125I-Fn binding to immobilized GPIIb-IIIa by fusion proteins (competition binding). Conditions: varying concentrations, FIG. 3. The protocol:
The ability of a fusion protein or polypeptide of the present invention to inhibit the binding interaction between GPIIb-IIIa and either fibronectin or fibrinogen was measured by competition binding to immobilized GPIIb-IIIa.
Incubate the GPIIb-IIIa in the plate for 16 hours at 4° C., then the unbound material is removed from the wells which are then blocked with 150 μl of 5% BSA in the same buffer for 1 hour at room temperature. Wash the wells three times with 150 μl of Tyrode's buffer with 5 mM HEPES, 1 mM MgCl2, 1 mg/ml dextrose, 1 mg/ml BSA. […] Incubate 4 hours to overnight at room temperature (with lead shield).
Carefully remove radioactive samples and wash 3 times with 150 μl Tyrodes with 5 mM HEPES, 1 mMMgCl2, 1 mg/ml dextrose, 1 mg/ml BSA. Count with a Gamma Counter and elute by boiling in SDS-PAGE loading Buffer.
In an alternative embodiment, non-radioactive Fn may be used instead of radioactive, and detected by reacting with an appropriate anti-Fn antibody and HRP-conjugated secondary antibody. Using this variation, each antibody is incubated with the washed plate for 1 hr. The anti-Fn antibody is titrated, but a 1:1000 dilution of HRP-conjugated antibody from most manufacturers works fine.

As for “(2:197-274): polypeptide of SEQ ID NO 2 residues 197-274, Fn residues 1359-1436”, the “inhibition of Fn binding to GPIIb-IIIa” value in test [1] was “inhibit Fn binding to GPIIb-IIIa”.
Turning to “(2:248-274): synthetic polypeptide of SEQ ID NO 2 residues 248-274, Fn residues 1410-1436 (IGQQSTVSDVPRDLEVVAATPTSLLIS)”, in test [1] (10 nM biotinylated Fn), the “polypeptide concentration for maximal inhibition of Fn binding to GPIIb-IIIa” value is “approximately 200 μM”. Moreover, the “competitive inhibition of Fn binding to purified GPIIb-IIIa” value in test [1] (10 nM biotinylated Fn, 0.1 to 200 μM polypeptide) is recorded as “competitively inhibits”.
Regarding Fibronectin, the “binding of radiolabelled ligand to insolubilized GPIIb-IIIa” value in test [2] (GPIIb-IIIa coated wells) was “Specific binding”. Further, the entries for the “125I-labelled ligand bound to GPIIb-IIIa” value in test [2] (inhibitor 2 mM EDTA), in test [2] (inhibitor Mab 16.12) and in test [2] (no inhibitor) were 8 Counts × 10^-3, 12 Counts × 10^-3 and 42 Counts × 10^-3, respectively. The “inhibition of fibronectin binding to purified GPIIb-IIIa” value in test [3] is “inhibited fibronectin binding”.
As for “(2:73-274): polypeptide of SEQ ID NO 2 residues 73-274, Fn residues 1235-1436”, in test [1], the “inhibition of Fn binding to GPIIb-IIIa” value was “inhibit Fn binding to GPIIb-IIIa”.
